Experimental data: patent US10954258B2, “STAT3 dimerization inhibitors” (H. LEE MOFFITT CANCER CENTER AND RESEARCH INSTITUTE, INC., priority 2012, dated 2021)

How the values were obtained:
Format in all cases: cell-based, human
[1] = system: MDA-MB-231 and A-549 cells; test: wound healing (migration) assay, cells with persistently activated STAT3
Description: A549, MDA-MB-231 and H460 cells were seeded at 6×10^5 cells per dish into 60 mm plate and allowed to grow overnight. Wounds were made the following day by scratching the cells with pipette tips (1-10 μL). Cells were treated with vehicle, S3I-1756 or S3I-1757 and allowed to migrate into the scratched area for 16 hours in regular growth medium. The migration of cells was visualized at 10× magnification using a Leica Microscope at time 0 (right before the drug was added) and 16 hours after vehicle, S3I-1756, or S3I-1757 treatments.
The cancer cells were cultured with serum-starved medium for 8 hours before scratching the cells with a pipette tip and treating with increasing concentrations of S3I-1757 for 24 hours. […] Finally, the ability of S3I-1757 to inhibit selectively invasion was determined.

H460 cells [2] = test: wound healing (migration) assay, H460; conditions: low levels of P-STAT3
[3] = system: P-STAT3, P-Erk, P-Akt, Bcl-xL, Survivin, MMP9 and Cyclin D1 in MDA-MB-468 cells; test: western immunoblotting of P-STAT3, P-Akt, P-Erk and STAT3 target genes; conditions: 18 hours
Description: MDA-MB-468 cells were treated with vehicle (DMSO), S3I-1757 at 50 μM, 100 μM and 200 μM, and S3I-1756 at 200 μM for 18 hours. Cells were then lysed with RIPA buffer (20 mM Tris-HCl (pH 7.4), 5 mM EDTA, 10 mM Na4P2O7, 100 mM NaF, 2 mM Na3VO4, 1% NP-40.1 mM PMSF and 10 mg/ml aprotinin). The cell lysates were denatured by boiling with 5×SDS-PAGE sample buffer for 5 minutes and run on SDS-PAGE gel. The proteins were then transferred to membranes that were blocked with 5% non-fat milk in Tris Buffer Saline with 0.1% Tween-20 (TBST) buffer for 30 minutes at room temperature, and incubated with primary antibodies (pY705STAT3, pAKT, AKT, pERK1/2, MMP9, and CyclinDi) 4° C. overnight at dilution of 1:1000 in 3% BSA, followed by washing and incubation with secondary antibody at dilution of 1:1000 in 5% non-milk Tris Buffer Saline with 0.1% Tween-20 (TBST) buffer for 1 hours at room temperature. The membranes were then washed with 1×PBS buffer for 10 minutes for 3 times and developed with ECL kit (PerkinElmer, Waltham, Mass., USA).
To this end, MDA-MB-468 cells were treated with vehicle, S3I-1756 or increasing concentration of S3I-1757 and processed for western blotting.

H460 cells [4] = test: anchorage independent growth by soft agar assay, H460; conditions: low activated STAT3 level
Description: Soft agar colony formation assays were performed in 12-well plate as described in Balasis, et al., Clin. Cancer. […] Colonies were allowed to grow for 3-4 weeks, and quantified by staining with 1 mg/mL MTT (Sigma, St. Louis, Mo., USA) overnight.
Several cell lines were used, some with persistently Y705 phosphorylated STAT3 and others without (FIG. 9A).

[5] = system: SRE promoter-renilla luciferase reporter (pLucSRE); test: luciferase reporter assay, SRE promoter; conditions: MDA-MB-468; 48 hours
Description: (§1) MDA-MB-468 cells were plated into 12-well plate with 4×10^5 cells per well. The cells were transiently transfected with pLucSRE, pLucTKS3 or STAT3-C with β-gal and then were treated with vehicle, S3I-1756 or S3I-1757 for 48 hours. Then cytosolic extracts of equal total protein were prepared from S3I-1757-treated or -untreated and analyzed for luciferase activity using a TD-20/20 luminometer (Turner Designs, Sunnyvale, Calif., USA) described by us previously.
(§2) To this end, MDA-MB-468 cells were transiently co-transfected with a STAT3-responsive promoter-firefly luciferase reporter (pLucTKS3) and 3-gal reporter used to normalize the transfection efficacy. To determine the selectivity of S3I-1757 to suppress STAT3-dependent over STAT3-independent transcriptional activation, MDA-MB-468 cells were also co-transfected with SRE promoter-renilla luciferase reporter (pLucSRE) and β-gal reporter. […] STAT3-C spontaneously dimerizes via disulfide bonds in the absence of tyrosine phosphorylation and is therefore not predicted to be inhibited by a small molecule that is designed to mimic phosphotyrosine binding.

[6] = system: STAT3-responsive promoter-firefly luciferase reporter (pLucTKS3); test: luciferase reporter assay, STAT3-responsive promoter
Description: as §1, §2

O=C(O)c1cc(N(Cc2ccc(C3CCCCC3)cc2)C(=O)c2ccc(Oc3ccccc3)cc2)ccc1O [Compound 20g, 5-(N-(4-Cyclohexylbenzyl)-4-phenoxybenzamido)-2-hydroxybenzoic acid]
migration (wound healing), MDA-MB-231 and A-549 [1]: prevented this migration
migration (wound healing), H460 (H460 cells [2]): minimally affected
expression of STAT3 target genes Bcl-xL, survivin, cyclin D1, MMP9 [3]: inhibited the expression of STAT3 target genes
phosphorylation of STAT3-Y705 (western blotting) [3]: inhibited the phosphorylation of STAT3-Y705 in a concentration dependent manner starting at 50 μM
selectivity of inhibition over Akt and Erk1/2 phosphorylation [3]: selective for STAT3 over Akt and Erk1/2 phosphorylation
anchorage-independent growth (soft agar), H460 (H460 cells [4]): little effect
SRE-driven luciferase activity (STAT3-independent) [5]: minimal effect
STAT3-dependent luciferase activity (pLucTKS3) ([6]; MDA-MB-468, 48 hours): less luciferase activity
STAT3-dependent transcriptional activity in cells transfected with STAT3-C ([6]; MDA-MB-468 transfected with STAT3-C): rescued from the S3I-1757 inhibition
